# Experimental data: patent publication US20150148759A1, “Pharmaceutical Patch for Transdermal Administration of Tapentadol” (Gruenenthal GmbH, priority 2012, published 2015)
# Several values for one entry are separate records, joined by “and”; a condition that tells them apart may be missing. Identical values can stand only once. Counter-ions that a name gives are not always drawn. Like-named read-outs stand apart in the source and are kept apart here.
# Legend:
# [1] = solubility of API and API HCl in different solvents; format: physicochemical
# Experimental: The solubility of API and API HCl in different organic solvents and aqueous solutions is tested by transferring defined volumes of the solvents into micro vials. API and API HCl, respectively, are added until saturation. The solutions are centrifuged and the supernatants analyzed by HPLC (Table 1).
# [2] = compatibility of API HCl with different adhesives; format: physicochemical
# Experimental: The compatibility of the hydrochloride salt of Tapentadol (API HCl) with different types of adhesives is tested (Table 2).
# Duro-Tak 87-900A: non-functional acrylic (no hydroxyl, no carboxyl groups), non-curing
# Duro-Tak 87-4287: hydroxyl-functionalized polyacrylate-vinylacetate copolymer, non-curing
# Duro-Tak 87-2677: carboxylate-functionalized polyacrylate-vinylacetate copolymer, self-curing
# Duro-Tak 87-6911 A: tackified styrene rubber (styrene-block-butadiene-block-styrene), not functionalized
# Bio PSA 7-4502: silicone adhesive.
# hairless mouse skin = assay: in-vitro skin permeation from donor solution, Franz-diffusion cell; format: in vitro ADME
# Experimental: Saturated solutions of API and API HCl were prepared in a mixture of ethanol and dodecanol (95:5) and ethanol and oleic acid (85:15), respectively.
# An in-vitro permeation study was performed with the saturated solutions to show permeation of drug through mouse skin. The in-vitro experiments were conducted using a Franz-diffusion cell. The Franz-diffusion cell consists of a donor compartment and an acceptor compartment. • Skin: hairless mouse skin, female, age 6-7 weeks • Stem: Hsd: Athymic Nude-Foxn1^nu • Dermal tissue: dorsal and abdominal with all dermal layers • Breeder: Harlan Laboratories GmbH • Acceptor medium: HEPES buffer pH 7.2 • Volume acceptor: 15 mL • Volume donor: 1.0 mL • Donor solutions: • API HCl in ethanol/dodecanol (95/5) • API HCl in ethanol/oleic acid (85/15) • API in ethanol/dodecanol (95/5) • API in ethanol/oleic acid (85/15) • Permeation area: ˜1.00 cm^2 • Temperature in donor solution: 32±0.5° C. • Sampling times: 3 h, 6 h, 12 h, 18 h, 24 h • Sampling: automatic sampling system #115 • Rinsed volume: ˜7.0 mL • Sample volume: 1.0 mL • Replaced volume: 8.0 mL • Standards: • API HCl in acceptor medium • c(std A)=86.12 μg/mL • c(std B)=8.612 μg/mL • HPLC method: see above • Injection volume: variable between 3-15 μL and adjusted dilution factor
# pain = assay: preliminary clinical trials, pain treating effect (visual analog scale); format: in vivo, human
# Excerpt: Low serum concentrations of Tapentadol suffice to show an effect in individuals that are relatively sensitive and higher serum concentrations of Tapentadol are needed to show an effect in persons that are relatively unsensitive.
# [3] = donor ethanol/dodecanol (95:5), time between sampling 6 h, 5th interval (sampling at 24 h)
# [4] = donor ethanol/dodecanol (95:5), total dissolution time 3 h
# [5] = donor ethanol/dodecanol (95:5), total dissolution time 6 h
# [6] = donor ethanol/dodecanol (95:5), total dissolution time 12 h
# [7] = donor ethanol/oleic (85:15), time between sampling 3 h, 1st interval (sampling at 3 h)
# [8] = donor ethanol/oleic (85:15), time between sampling 3 h, 2nd interval (sampling at 6 h)
# [9] = donor ethanol/oleic (85:15), time between sampling 6 h, 3rd interval (sampling at 12 h)
# [10] = donor ethanol/oleic (85:15), time between sampling 6 h, 5th interval (sampling at 24 h)
# [11] = donor ethanol/oleic (85:15), total dissolution time 3 h
# [12] = donor ethanol/oleic (85:15), total dissolution time 6 h
# [13] = donor ethanol/oleic (85:15), total dissolution time 12 h
# [14] = donor ethanol/oleic (85:15), total dissolution time 18 h
# [15] = donor ethanol/oleic (85:15), total dissolution time 24 h
# [16] = donor ethanol/oleic (85:15), total time 3 h
# [17] = donor ethanol/oleic (85:15), total time 6 h
# [18] = donor ethanol/oleic (85:15), total time 12 h
# [19] = donor ethanol/oleic (85:15), total time 18 h
# [20] = donor ethanol/oleic (85:15), total time 24 h
# [21] = donor ethanol/dodecanol (95:5), total dissolution time 18 h
# [22] = donor ethanol/dodecanol (95:5), total dissolution time 24 h
compound,measurement,setting,value
CC[C@@H](c1cccc(O)c1)[C@@H](C)CN(C)C [API HCl],solubility,[1]; HEPES (pH = 7.2),286 mg/mL
same,solubility,[1]; acetone,0.92 mg/mL
same,solubility,[1]; aqueous solutions,excellent solubility
same,solubility,[1]; ethanol,33.1 mg/mL
same,solubility,[1]; ethylacetate,4.46 mg/mL
same,solubility,"[1]; organic solvents like ethylacetate or acetone, ethanol and n-heptane",hardly soluble
same,solubility,[1]; water (pH = 5.8),298 mg/mL
same,appearance of solution,[2]; carboxylate-functionalized DT 87-2677,yellowish solutions are clear
same,appearance of solution,[2]; hydroxyl-functionalized polymer DT 87-4287,opaque solutions which turn slightly yellow after two weeks at room temperature
same,appearance of solution,[2]; non-functionalized DT 87-900A,clear and colorless
same,appearance of solution,"[2]; silicone adhesive Bio PSA 7-4502, 2 and 5% of API HCl",clear and colorless
same,flux,hairless mouse skin; [3],810.2 μg/cm^2h and 480.5 μg/cm^2h
same,permeated amount of API or API HCl,hairless mouse skin; [4],0.8% and 0.2%
same,permeated amount of API or API HCl,hairless mouse skin; [5],2.1% and 0.7%
same,permeated amount of API or API HCl,hairless mouse skin; [6],8.0% and 2.6%
same,flux,hairless mouse skin; [7],55.4 μg/cm^2h and 63.3 μg/cm^2h
same,flux,hairless mouse skin; [8],107.6 μg/cm^2h and 142.2 μg/cm^2h
same,flux,hairless mouse skin; [9],205.0 μg/cm^2h and 234.1 μg/cm^2h
same,flux,"hairless mouse skin; donor ethanol/oleic (85:15), time between sampling 6 h, 4th interval (sampling at 18 h)",142.8 μg/cm^2h and 155.3 μg/cm^2h
same,flux,hairless mouse skin; [10],114.7 μg/cm^2h and 115.8 μg/cm^2h
same,permeated amount of API or API HCl,hairless mouse skin; [11],0.4% and 0.5%
same,total permeated amount of API or API HCl,hairless mouse skin; [11],166.2 μg/cm^2 and 189.9 μg/cm^2
same,permeated amount of API or API HCl,hairless mouse skin; [12],1.2% and 1.6%
same,total permeated amount of API or API HCl,hairless mouse skin; [12],489.0 μg/cm^2 and 616.7 μg/cm^2
same,permeated amount of API or API HCl,hairless mouse skin; [13],4.4% and 5.1%
same,total permeated amount of API or API HCl,hairless mouse skin; [13],1718.7 μg/cm^2 and 2021.1 μg/cm^2
same,permeated amount of API or API HCl,hairless mouse skin; [14],6.5% and 7.5%
same,total permeated amount of API or API HCl,hairless mouse skin; [14],2575.7 μg/cm^2 and 2953.1 μg/cm^2
same,permeated amount of API or API HCl,hairless mouse skin; [15],8.3% and 9.3%
same,total permeated amount of API or API HCl,hairless mouse skin; [15],3263.7 μg/cm^2 and 3647.7 μg/cm^2
same,concentration of API or API HCl in sample solution,hairless mouse skin; [16],10.859 µg/mL and 12.409 µg/mL
same,concentration of API or API HCl in sample solution,hairless mouse skin; [17],26.807 µg/mL and 34.414 µg/mL
same,concentration of API or API HCl in sample solution,hairless mouse skin; [18],94.462 µg/mL and 109.882 µg/mL
same,concentration of API or API HCl in sample solution,hairless mouse skin; [19],105.741 µg/mL and 118.759 µg/mL
same,concentration of API or API HCl in sample solution,hairless mouse skin; [20],100.635 µg/mL and 107.927 µg/mL
"CC[C@@H](c1cccc(O)c1)[C@@H](C)CN(C)C [API, 3-[(1R,2R)-3-(dimethylamino)-1-ethyl-2-methylpropyl]phenol]",solubility,[1]; HEPES (pH = 7.2),5.43 mg/mL
same,solubility,[1]; acetone,332 mg/mL
same,dissolved amounts of API,[1]; aqueous solutions,≤ 5.5 mg/mL
same,solubility,[1]; ethanol,404 mg/mL
same,solubility,[1]; ethylacetate,232 mg/mL
same,solubility,"[1]; n-heptane, organic solvent or mixture, thermodynamic from solid, n-heptane, read-out: solubility",1.27 mg/mL
same,API contents measured,[1]; organic solvents other than n-heptane,higher than 230 mg/mL
same,solubility,[1]; water (pH = 5.8),0.48 mg/mL
same,passes across the skin barrier,hairless mouse skin; compared with the hydrochloride of Tapentadol,much better
same,flux,"hairless mouse skin; donor ethanol/dodecanol (95:5), time between sampling 3 h, 1st interval (sampling at 3 h)",178.1 μg/cm^2h and 263.3 μg/cm^2h
same,flux,"hairless mouse skin; donor ethanol/dodecanol (95:5), time between sampling 3 h, 2nd interval (sampling at 6 h)",314.1 μg/cm^2h and 398.7 μg/cm^2h
same,flux,"hairless mouse skin; donor ethanol/dodecanol (95:5), time between sampling 6 h, 3rd interval (sampling at 12 h)",789.1 μg/cm^2h and 1056.3 μg/cm^2h
same,flux,"hairless mouse skin; donor ethanol/dodecanol (95:5), time between sampling 6 h, 4th interval (sampling at 18 h)",2405.6 μg/cm^2h and 2492.9 μg/cm^2h
same,flux,hairless mouse skin; [3],1028.9 μg/cm^2h and 1038.6 μg/cm^2h
same,permeated amount of API or API HCl,hairless mouse skin; [4],1.0% and 1.5%
same,total permeated amount of API or API HCl,hairless mouse skin; [4],534.4 μg/cm^2 and 789.9 μg/cm^2
same,permeated amount of API or API HCl,hairless mouse skin; [5],2.9% and 3.9%
same,total permeated amount of API or API HCl,hairless mouse skin; [5],1476.8 μg/cm^2 and 1986.1 μg/cm^2
same,permeated amount of API or API HCl,hairless mouse skin; [6],12.1% and 16.2%
same,total permeated amount of API or API HCl,hairless mouse skin; [6],6211.5 μg/cm^2 and 8324.0 μg/cm^2
same,permeated amount of API or API HCl,hairless mouse skin; [21],40.2% and 45.4%
same,total permeated amount of API or API HCl,hairless mouse skin; [21],20644.9 μg/cm^2 and 23281.6 μg/cm^2
same,permeated amount of API or API HCl,hairless mouse skin; [22],52.3% and 57.5%
same,total permeated amount of API or API HCl,hairless mouse skin; [22],26818.4 μg/cm^2 and 29513.4 μg/cm^2
same,concentration of API or API HCl in sample solution,"hairless mouse skin; donor ethanol/dodecanol (95:5), total time 3 h",34.914 µg/mL and 51.610 µg/mL
same,concentration of API or API HCl in sample solution,"hairless mouse skin; donor ethanol/dodecanol (95:5), total time 6 h",79.955 µg/mL and 105.327 µg/mL
same,concentration of API or API HCl in sample solution,"hairless mouse skin; donor ethanol/dodecanol (95:5), total time 12 h",351.444 µg/mL and 469.548 µg/mL
same,concentration of API or API HCl in sample solution,"hairless mouse skin; donor ethanol/dodecanol (95:5), total time 18 h",1128.078 µg/mL and 1224.529 µg/mL
same,concentration of API or API HCl in sample solution,"hairless mouse skin; donor ethanol/dodecanol (95:5), total time 24 h",997.460 µg/mL and 1052.063 µg/mL
same,flux,hairless mouse skin; [7],273.5 μg/cm^2h and 441.9 μg/cm^2h
same,flux,hairless mouse skin; [8],1279.0 μg/cm^2h and 1897.8 μg/cm^2h
same,flux,hairless mouse skin; [9],458.8 μg/cm^2h and 247.0 μg/cm^2h
same,flux,hairless mouse skin; [10],572.1 μg/cm^2h and 382.5 μg/cm^2h
same,permeated amount of API or API HCl,hairless mouse skin; [11],1.7% and 2.7%
same,total permeated amount of API or API HCl,hairless mouse skin; [11],820.5 μg/cm^2 and 1325.6 μg/cm^2
same,permeated amount of API or API HCl,hairless mouse skin; [12],9.5% and 14.3%
same,total permeated amount of API or API HCl,hairless mouse skin; [12],4657.4 μg/cm^2 and 7019.0 μg/cm^2
same,permeated amount of API or API HCl,hairless mouse skin; [13],15.1% and 17.3%
same,total permeated amount of API or API HCl,hairless mouse skin; [13],7410.5 μg/cm^2 and 8500.8 μg/cm^2
same,permeated amount of API or API HCl,hairless mouse skin; [14],17.9% and 26.6%
same,total permeated amount of API or API HCl,hairless mouse skin; [14],8799.1 μg/cm^2 and 13084.6 μg/cm^2
same,permeated amount of API or API HCl,hairless mouse skin; [15],24.9% and 31.3%
same,total permeated amount of API or API HCl,hairless mouse skin; [15],12231.6 μg/cm^2 and 15379.8 μg/cm^2
same,concentration of API or API HCl in sample solution,hairless mouse skin; [16],53.604 µg/mL and 86.606 µg/mL
same,concentration of API or API HCl in sample solution,hairless mouse skin; [17],278.914 µg/mL and 417.581 µg/mL
same,concentration of API or API HCl in sample solution,hairless mouse skin; [18],326.763 µg/mL and 316.739 µg/mL
same,concentration of API or API HCl in sample solution,hairless mouse skin; [19],262.813 µg/mL and 466.288 µg/mL
same,concentration of API or API HCl in sample solution,hairless mouse skin; [20],362.673 µg/mL and 395.534 µg/mL
"CC[C@@H](c1cccc(O)c1)[C@@H](C)CN(C)C [Tapentadol, 3-[(1R,2R)-3-(dimethylamino)-1-ethyl-2-methylpropyl]phenol]",visual analog scale (VAS) in a population mean,pain; serum concentration about 5 ng·ml^−1,approximately −2 mm
same,visual analog scale (VAS) in a population mean,pain; serum concentration about 300 ng·ml^−1,approximately −15 mm
